In ChEMBL document CHEMBL1147101, “Development and persistence of antimicrobial resistance in Pseudomonas aeruginosa: a longitudinal observation in mechanically ventilated patients” (Antimicrob Agents Chemother, 2007):
The source made the active and inactive calls. The calls are words filed in the database; no cut-off is given here.

Tests used:
Type in all cases: functional, organism-based
Conditions in all cases: Trachea
Pseudomonas aeruginosa [1] = assay: Antimicrobial activity against Pseudomonas aeruginosa 65.38-1 tracheal isolates from mechanically ventilated tuberculosis patient
Pseudomonas aeruginosa [2] = assay: Antimicrobial activity against Pseudomonas aeruginosa 8B11 tracheal isolates from mechanically ventilated chronic respiratory insufficiency patient
Pseudomonas aeruginosa [3] = assay: Antimicrobial activity against Pseudomonas aeruginosa 3D1 tracheal isolates from mechanically ventilated chronic respiratory insufficiency patient
Pseudomonas aeruginosa [4] = assay: Antimicrobial activity against Pseudomonas aeruginosa P21.21 tracheal isolates from mechanically ventilated tuberculosis patient
Pseudomonas aeruginosa [5] = assay: Antimicrobial activity against Pseudomonas aeruginosa 2C1 tracheal isolates from mechanically ventilated tuberculosis patient
Pseudomonas aeruginosa [6] = assay: Antimicrobial activity against Pseudomonas aeruginosa 65.68-1 tracheal isolates from mechanically ventilated tuberculosis patient
Pseudomonas aeruginosa [7] = assay: Antimicrobial activity against Pseudomonas aeruginosa 65.33-2 tracheal isolates from mechanically ventilated tuberculosis patient
Pseudomonas aeruginosa [8] = assay: Antimicrobial activity against Pseudomonas aeruginosa 65.36-3 tracheal isolates from mechanically ventilated tuberculosis patient
Pseudomonas aeruginosa [9] = assay: Antimicrobial activity against Pseudomonas aeruginosa 10B3 tracheal isolates from mechanically ventilated chronic respiratory insufficiency patient
Pseudomonas aeruginosa [10] = assay: Antimicrobial activity against Pseudomonas aeruginosa 19C7 tracheal isolates from mechanically ventilated chronic respiratory insufficiency patient
Pseudomonas aeruginosa [11] = assay: Antimicrobial activity against Pseudomonas aeruginosa P21.23 tracheal isolates from mechanically ventilated tuberculosis patient
Pseudomonas aeruginosa [12] = assay: Antimicrobial activity against Pseudomonas aeruginosa 1A9 tracheal isolates from mechanically ventilated tuberculosis patient
Pseudomonas aeruginosa [13] = assay: Antimicrobial activity against Pseudomonas aeruginosa 5F8 tracheal isolates from mechanically ventilated chronic respiratory insufficiency patient
Pseudomonas aeruginosa [14] = assay: Antimicrobial activity against Pseudomonas aeruginosa 16D5 tracheal isolates from mechanically ventilated chronic respiratory insufficiency patient
Pseudomonas aeruginosa [15] = assay: Antimicrobial activity against Pseudomonas aeruginosa 22D2 tracheal isolates from mechanically ventilated chronic respiratory insufficiency patient
Pseudomonas aeruginosa [16] = assay: Antimicrobial activity against Pseudomonas aeruginosa 3B1 tracheal isolates from mechanically ventilated tuberculosis patient
Pseudomonas aeruginosa [17] = assay: Antimicrobial activity against Pseudomonas aeruginosa 24G1 tracheal isolates from mechanically ventilated chronic respiratory insufficiency patient
Pseudomonas aeruginosa [18] = assay: Antimicrobial activity against Pseudomonas aeruginosa 22D6 tracheal isolates from mechanically ventilated chronic respiratory insufficiency patient
Pseudomonas aeruginosa [19] = assay: Antimicrobial activity against Pseudomonas aeruginosa 9B5 tracheal isolates from mechanically ventilated chronic respiratory insufficiency patient
Pseudomonas aeruginosa [20] = assay: Antimicrobial activity against Pseudomonas aeruginosa 8C4 tracheal isolates from mechanically ventilated chronic respiratory insufficiency patient
Pseudomonas aeruginosa [21] = assay: Antimicrobial activity against Pseudomonas aeruginosa 3E2 tracheal isolates from mechanically ventilated chronic respiratory insufficiency patient
Pseudomonas aeruginosa [22] = assay: Antimicrobial activity against Pseudomonas aeruginosa 19B3 tracheal isolates from mechanically ventilated chronic respiratory insufficiency patient
Pseudomonas aeruginosa [23] = assay: Antimicrobial activity against Pseudomonas aeruginosa 9A7 tracheal isolates from mechanically ventilated chronic respiratory insufficiency patient
Pseudomonas aeruginosa [24] = assay: Antimicrobial activity against Pseudomonas aeruginosa 2C2 tracheal isolates from mechanically ventilated tuberculosis patient
Pseudomonas aeruginosa [25] = assay: Antimicrobial activity against Pseudomonas aeruginosa 8A12 tracheal isolates from mechanically ventilated chronic respiratory insufficiency patient
Pseudomonas aeruginosa [26] = assay: Antimicrobial activity against Pseudomonas aeruginosa 65.68-4 tracheal isolates from mechanically ventilated tuberculosis patient
Pseudomonas aeruginosa [27] = assay: Antimicrobial activity against Pseudomonas aeruginosa 10A6 tracheal isolates from mechanically ventilated chronic respiratory insufficiency patient
Pseudomonas aeruginosa [28] = assay: Antimicrobial activity against Pseudomonas aeruginosa 1B9 tracheal isolates from mechanically ventilated tuberculosis patient
Pseudomonas aeruginosa [29] = assay: Antimicrobial activity against Pseudomonas aeruginosa 19E2 tracheal isolates from mechanically ventilated chronic respiratory insufficiency patient
Pseudomonas aeruginosa [30] = assay: Antimicrobial activity against Pseudomonas aeruginosa 2A2 tracheal isolates from mechanically ventilated tuberculosis patient
Pseudomonas aeruginosa [31] = assay: Antimicrobial activity against Pseudomonas aeruginosa 22D9 tracheal isolates from mechanically ventilated chronic respiratory insufficiency patient
Pseudomonas aeruginosa [32] = assay: Antimicrobial activity against Pseudomonas aeruginosa 22E1 tracheal isolates from mechanically ventilated chronic respiratory insufficiency patient
Pseudomonas aeruginosa [33] = assay: Antimicrobial activity against Pseudomonas aeruginosa 2A5 tracheal isolates from mechanically ventilated tuberculosis patient
Pseudomonas aeruginosa [34] = assay: Antimicrobial activity against Pseudomonas aeruginosa 29G6 tracheal isolates from mechanically ventilated chronic respiratory insufficiency patient
Pseudomonas aeruginosa [35] = assay: Antimicrobial activity against Pseudomonas aeruginosa 65.36-4 tracheal isolates from mechanically ventilated tuberculosis patient
Pseudomonas aeruginosa [36] = assay: Antimicrobial activity against Pseudomonas aeruginosa 2A3 tracheal isolates from mechanically ventilated tuberculosis patient
Pseudomonas aeruginosa [37] = assay: Antimicrobial activity against Pseudomonas aeruginosa 5G3 tracheal isolates from mechanically ventilated chronic respiratory insufficiency patient
Pseudomonas aeruginosa [38] = assay: Antimicrobial activity against Pseudomonas aeruginosa 65.36-2 tracheal isolates from mechanically ventilated tuberculosis patient
Pseudomonas aeruginosa [39] = assay: Antimicrobial activity against Pseudomonas aeruginosa 65.18-4 tracheal isolates from mechanically ventilated tuberculosis patient
Pseudomonas aeruginosa [40] = assay: Antimicrobial activity against Pseudomonas aeruginosa 24E5 tracheal isolates from mechanically ventilated chronic respiratory insufficiency patient
Pseudomonas aeruginosa [41] = assay: Antimicrobial activity against Pseudomonas aeruginosa 13E1 tracheal isolates from mechanically ventilated chronic respiratory insufficiency patient
Pseudomonas aeruginosa [42] = assay: Antimicrobial activity against Pseudomonas aeruginosa 10A9 tracheal isolates from mechanically ventilated chronic respiratory insufficiency patient
Pseudomonas aeruginosa [43] = assay: Antimicrobial activity against Pseudomonas aeruginosa 9A1 tracheal isolates from mechanically ventilated chronic respiratory insufficiency patient
Pseudomonas aeruginosa [44] = assay: Antimicrobial activity against Pseudomonas aeruginosa 29G7 tracheal isolates from mechanically ventilated chronic respiratory insufficiency patient
Pseudomonas aeruginosa [45] = assay: Antimicrobial activity against Pseudomonas aeruginosa 2A7 tracheal isolates from mechanically ventilated tuberculosis patient
Pseudomonas aeruginosa [46] = assay: Antimicrobial activity against Pseudomonas aeruginosa 15G2 tracheal isolates from mechanically ventilated chronic respiratory insufficiency patient
Pseudomonas aeruginosa [47] = assay: Antimicrobial activity against Pseudomonas aeruginosa 29G8 tracheal isolates from mechanically ventilated chronic respiratory insufficiency patient
Pseudomonas aeruginosa [48] = assay: Antimicrobial activity against Pseudomonas aeruginosa 10B1 tracheal isolates from mechanically ventilated chronic respiratory insufficiency patient
Pseudomonas aeruginosa [49] = assay: Antimicrobial activity against Pseudomonas aeruginosa 65.68-3 tracheal isolates from mechanically ventilated tuberculosis patient
Pseudomonas aeruginosa [50] = assay: Antimicrobial activity against Pseudomonas aeruginosa 19B6 tracheal isolates from mechanically ventilated chronic respiratory insufficiency patient
Pseudomonas aeruginosa [51] = assay: Antimicrobial activity against Pseudomonas aeruginosa 29F6 tracheal isolates from mechanically ventilated chronic respiratory insufficiency patient
Pseudomonas aeruginosa [52] = assay: Antimicrobial activity against Pseudomonas aeruginosa 65.68-2 tracheal isolates from mechanically ventilated tuberculosis patient
Pseudomonas aeruginosa [53] = assay: Antimicrobial activity against Pseudomonas aeruginosa 2F6 tracheal isolates from mechanically ventilated tuberculosis patient
Pseudomonas aeruginosa [54] = assay: Antimicrobial activity against Pseudomonas aeruginosa 5F2 tracheal isolates from mechanically ventilated chronic respiratory insufficiency patient
Pseudomonas aeruginosa [55] = assay: Antimicrobial activity against Pseudomonas aeruginosa 2A6 tracheal isolates from mechanically ventilated tuberculosis patient
Pseudomonas aeruginosa [56] = assay: Antimicrobial activity against Pseudomonas aeruginosa 9A10 tracheal isolates from mechanically ventilated chronic respiratory insufficiency patient
Pseudomonas aeruginosa [57] = assay: Antimicrobial activity against Pseudomonas aeruginosa 2A9 tracheal isolates from mechanically ventilated tuberculosis patient
Pseudomonas aeruginosa [58] = assay: Antimicrobial activity against Pseudomonas aeruginosa 22E3 tracheal isolates from mechanically ventilated chronic respiratory insufficiency patient
Pseudomonas aeruginosa [59] = assay: Antimicrobial activity against Pseudomonas aeruginosa 65.33-4 tracheal isolates from mechanically ventilated tuberculosis patient
Pseudomonas aeruginosa [60] = assay: Antimicrobial activity against Pseudomonas aeruginosa 65.33-1 tracheal isolates from mechanically ventilated tuberculosis patient

In the case of CC(C)(O/N=C(\C(=O)N[C@@H]1C(=O)N2C(C(=O)[O-])=C(C[n+]3ccccc3)CS[C@H]12)c1csc(N)n1)C(=O)O, the Activity (Pseudomonas aeruginosa [1]) is reported as “inactive”, the Activity (Pseudomonas aeruginosa [2]) is reported as “Active” and the Activity (Pseudomonas aeruginosa [3]) is reported as “Active”. The Activity (Pseudomonas aeruginosa [4]) was “Active”, the Activity (Pseudomonas aeruginosa [5]) was “inactive” and the Activity (Pseudomonas aeruginosa [6]) was “Active”. The Activity (Pseudomonas aeruginosa [7]) was “Active”, the Activity (Pseudomonas aeruginosa [8]) was “Active” and the Activity (Pseudomonas aeruginosa [9]) was “Active”. For the same compound, the Activity (Pseudomonas aeruginosa [10]) was “Active”, the Activity (Pseudomonas aeruginosa [11]) was “Active” and the Activity (Pseudomonas aeruginosa [12]) was “inactive”. For the same compound, the Activity (Pseudomonas aeruginosa [13]) was “Active”, the Activity (Pseudomonas aeruginosa [14]) was “Active” and the Activity (Pseudomonas aeruginosa [15]) was “Active”. The Activity (Pseudomonas aeruginosa [16]) was “Active”, the Activity (Pseudomonas aeruginosa [17]) was “Active” and the Activity (Pseudomonas aeruginosa [18]) was “Active”. For the same compound, the Activity (Pseudomonas aeruginosa [19]) was “Active”, the Activity (Pseudomonas aeruginosa [20]) was “Active” and the Activity (Pseudomonas aeruginosa [21]) was “Active”. For the same compound, the Activity (Pseudomonas aeruginosa [22]) was “Active”, the Activity (Pseudomonas aeruginosa [23]) was “Active” and the Activity (Pseudomonas aeruginosa [24]) was “Active”. For the same compound, the Activity (Pseudomonas aeruginosa [25]) was “Active”, the Activity (Pseudomonas aeruginosa [26]) was “Active” and the Activity (Pseudomonas aeruginosa [27]) was “Active”. For the same compound, the Activity (Pseudomonas aeruginosa [28]) was “inactive”, the Activity (Pseudomonas aeruginosa [29]) was “Active” and the Activity (Pseudomonas aeruginosa [30]) was “Active”. The Activity (Pseudomonas aeruginosa [31]) was “Active”, the Activity (Pseudomonas aeruginosa [32]) was “Active” and the Activity (Pseudomonas aeruginosa [33]) was “Active”. The Activity (Pseudomonas aeruginosa [34]) was “Active”, the Activity (Pseudomonas aeruginosa [35]) was “inactive” and the Activity (Pseudomonas aeruginosa [36]) was “Active”. The Activity (Pseudomonas aeruginosa [37]) was “Active”, the Activity (Pseudomonas aeruginosa [38]) was “Active” and the Activity (Pseudomonas aeruginosa [39]) was “Active”. The Activity (Pseudomonas aeruginosa [40]) was “Active”, the Activity (Pseudomonas aeruginosa [41]) was “Active” and the Activity (Pseudomonas aeruginosa [42]) was “Active”. The Activity (Pseudomonas aeruginosa [43]) was “Active”, the Activity (Pseudomonas aeruginosa [44]) was “Active” and the Activity (Pseudomonas aeruginosa [45]) was “inactive”. The Activity (Pseudomonas aeruginosa [46]) was “Active”, the Activity (Pseudomonas aeruginosa [47]) was “Active” and the Activity (Pseudomonas aeruginosa [48]) was “Active”. The Activity (Pseudomonas aeruginosa [49]) was “Active”, the Activity (Pseudomonas aeruginosa [50]) was “Active” and the Activity (Pseudomonas aeruginosa [51]) was “Active”. For the same compound, the Activity (Pseudomonas aeruginosa [52]) was “Active”, the Activity (Pseudomonas aeruginosa [53]) was “inactive” and the Activity (Pseudomonas aeruginosa [54]) was “Active”. The Activity (Pseudomonas aeruginosa [55]) was “inactive”, the Activity (Pseudomonas aeruginosa [56]) was “Active” and the Activity (Pseudomonas aeruginosa [57]) was “inactive”. The Activity (Pseudomonas aeruginosa [58]) was “Active”, the Activity (Pseudomonas aeruginosa [59]) was “Active” and the Activity (Pseudomonas aeruginosa [60]) was “Active”.
CO/N=C(\C(=O)N[C@@H]1C(=O)N2C(C(=O)[O-])=C(C[N+]3(C)CCCC3)CS[C@H]12)c1csc(N)n1 was tested, and the Activity (Pseudomonas aeruginosa [1]) was “inactive”, the Activity (Pseudomonas aeruginosa [2]) was “Active” and the Activity (Pseudomonas aeruginosa [3]) was “Active”. The Activity (Pseudomonas aeruginosa [4]) was “Active”, the Activity (Pseudomonas aeruginosa [5]) was “inactive” and the Activity (Pseudomonas aeruginosa [6]) was “Active”. For the same compound, the Activity (Pseudomonas aeruginosa [7]) was “Active”, the Activity (Pseudomonas aeruginosa [9]) was “Active” and the Activity (Pseudomonas aeruginosa [10]) was “Active”. For the same compound, the Activity (Pseudomonas aeruginosa [11]) was “Active”, the Activity (Pseudomonas aeruginosa [12]) was “Active” and the Activity (Pseudomonas aeruginosa [13]) was “Active”. For the same compound, the Activity (Pseudomonas aeruginosa [14]) was “Active”, the Activity (Pseudomonas aeruginosa [15]) was “Active” and the Activity (Pseudomonas aeruginosa [16]) was “Active”. For the same compound, the Activity (Pseudomonas aeruginosa [17]) was “Active”, the Activity (Pseudomonas aeruginosa [18]) was “Active” and the Activity (Pseudomonas aeruginosa [19]) was “Active”. For the same compound, the Activity (Pseudomonas aeruginosa [20]) was “Active”, the Activity (Pseudomonas aeruginosa [21]) was “Active” and the Activity (Pseudomonas aeruginosa [22]) was “Active”. The Activity (Pseudomonas aeruginosa [23]) was “Active”, the Activity (Pseudomonas aeruginosa [24]) was “Active” and the Activity (Pseudomonas aeruginosa [25]) was “Active”. For the same compound, the Activity (Pseudomonas aeruginosa [26]) was “Active”, the Activity (Pseudomonas aeruginosa [27]) was “Active” and the Activity (Pseudomonas aeruginosa [28]) was “inactive”. For the same compound, the Activity (Pseudomonas aeruginosa [29]) was “Active”, the Activity (Pseudomonas aeruginosa [30]) was “Active” and the Activity (Pseudomonas aeruginosa [31]) was “Active”. The Activity (Pseudomonas aeruginosa [32]) was “Active”, the Activity (Pseudomonas aeruginosa [33]) was “Active” and the Activity (Pseudomonas aeruginosa [34]) was “Active”. The Activity (Pseudomonas aeruginosa [35]) was “inactive”, the Activity (Pseudomonas aeruginosa [36]) was “Active” and the Activity (Pseudomonas aeruginosa [37]) was “Active”. For the same compound, the Activity (Pseudomonas aeruginosa [38]) was “Active”, the Activity (Pseudomonas aeruginosa [39]) was “Active” and the Activity (Pseudomonas aeruginosa [40]) was “Active”. The Activity (Pseudomonas aeruginosa [41]) was “Active”, the Activity (Pseudomonas aeruginosa [42]) was “Active” and the Activity (Pseudomonas aeruginosa [43]) was “Active”. For the same compound, the Activity (Pseudomonas aeruginosa [44]) was “Active”, the Activity (Pseudomonas aeruginosa [45]) was “inactive” and the Activity (Pseudomonas aeruginosa [46]) was “Active”. The Activity (Pseudomonas aeruginosa [47]) was “Active”, the Activity (Pseudomonas aeruginosa [48]) was “Active” and the Activity (Pseudomonas aeruginosa [49]) was “Active”. For the same compound, the Activity (Pseudomonas aeruginosa [50]) was “Active”, the Activity (Pseudomonas aeruginosa [51]) was “Active” and the Activity (Pseudomonas aeruginosa [52]) was “Active”. For the same compound, the Activity (Pseudomonas aeruginosa [53]) was “inactive”, the Activity (Pseudomonas aeruginosa [54]) was “Active” and the Activity (Pseudomonas aeruginosa [56]) was “Active”. The Activity (Pseudomonas aeruginosa [58]) was “Active”, the Activity (Pseudomonas aeruginosa [59]) was “Active” and the Activity (Pseudomonas aeruginosa [60]) was “Active”.
